US11345678B2, “Benzopyrazole compound used as RHO kinase inhibitor” (MEDSHINE DISCOVERY INC., priority 2018, dated 2022)

How the values were obtained:
[1] = Pharmacokinetics in SD rats (intravenous injection and oral administration); assay type: in vivo; conditions: rat, plasma, male SD rats; for clearance / half-life / Vd: intravenous 1 mg/kg; for clearance: read-out: Clearance rate CL; for half-life: read-out: Half-life T1/2 (IV) (converted); for Vd: read-out: Tissue distribution Vdss; for bioavailability: oral 2 mg/kg vs intravenous 1 mg/kg, read-out: Bioavailability F; for AUC(0-t) / Cmax: oral 2 mg/kg; for AUC(0-t): read-out: Area under the drug-time curve AUC0-last PO; for Cmax: read-out: Peak concentration Cmax
Description: 4. Evaluation of the Pharmacokinetics of the Compound
Experimental purpose: to study the pharmacokinetics of the compounds in SD rats in vivo
SD rat (male, 7 to 10 weeks old, WTLH/SLAC)
The rodent pharmacokinetic characteristics of the compounds after intravenous injection and oral administration were tested by standard protocols. In the experiment, the candidate compounds were formulated into 0.2 mg/mL clear solutions and were given to the rats by a single intravenous injection and oral administration. The vehicles of the intravenous injection and oral administration were both 5% DMSO/95% (10% hydroxypropyl P-cyclodextrin) aqueous solution. This project used four male SD rats and two of them were administered by intravenous injection at a dosage of 1 mg/kg, plasma samples were collected at 0.0833, 0.25, 0.5, 1, 2, 4, 6, 8, and 24 hours after administration, the other two rats were administered orally and intragastrically at a dosage of 2 mg/kg, plasma samples were collected at 0.25, 0.5, 1, 2, 3, 4, 6, 8, 24 hours after administration. The whole blood samples were collected within 24 hours and centrifuged at 3000 g for 15 minutes, and the supernatants were separated to give plasma samples. The plasma samples were added with an acetonitrile solution containing internal standard to precipitate protein, mixed thoroughly and centrifuged, and the supernatants were taken for injection. The blood drug concentration was quantitatively analyzed by LC-MS/MS analysis method, and the pharmacokinetic parameters (such as peak concentration (Cmax), clearance rate (CL), half-life (T1/2), […] (Vdss), area under the drug-time curve (AUC0-last), and bioavailability (F), etc.) were calculated.

[2] = biological target: ROCK1 (Homo sapiens (Human), UniProt Q13464); experiment: In vitro inhibitory activity against ROCK protein kinase (33P-ATP filter-binding), ROCK1; assay type: biochemical; conditions: 1 nM ROCK protein kinase, 20 μM Long S6 Kinase substrate peptide
Sequence of ROCK1 (Q13464 whole entry): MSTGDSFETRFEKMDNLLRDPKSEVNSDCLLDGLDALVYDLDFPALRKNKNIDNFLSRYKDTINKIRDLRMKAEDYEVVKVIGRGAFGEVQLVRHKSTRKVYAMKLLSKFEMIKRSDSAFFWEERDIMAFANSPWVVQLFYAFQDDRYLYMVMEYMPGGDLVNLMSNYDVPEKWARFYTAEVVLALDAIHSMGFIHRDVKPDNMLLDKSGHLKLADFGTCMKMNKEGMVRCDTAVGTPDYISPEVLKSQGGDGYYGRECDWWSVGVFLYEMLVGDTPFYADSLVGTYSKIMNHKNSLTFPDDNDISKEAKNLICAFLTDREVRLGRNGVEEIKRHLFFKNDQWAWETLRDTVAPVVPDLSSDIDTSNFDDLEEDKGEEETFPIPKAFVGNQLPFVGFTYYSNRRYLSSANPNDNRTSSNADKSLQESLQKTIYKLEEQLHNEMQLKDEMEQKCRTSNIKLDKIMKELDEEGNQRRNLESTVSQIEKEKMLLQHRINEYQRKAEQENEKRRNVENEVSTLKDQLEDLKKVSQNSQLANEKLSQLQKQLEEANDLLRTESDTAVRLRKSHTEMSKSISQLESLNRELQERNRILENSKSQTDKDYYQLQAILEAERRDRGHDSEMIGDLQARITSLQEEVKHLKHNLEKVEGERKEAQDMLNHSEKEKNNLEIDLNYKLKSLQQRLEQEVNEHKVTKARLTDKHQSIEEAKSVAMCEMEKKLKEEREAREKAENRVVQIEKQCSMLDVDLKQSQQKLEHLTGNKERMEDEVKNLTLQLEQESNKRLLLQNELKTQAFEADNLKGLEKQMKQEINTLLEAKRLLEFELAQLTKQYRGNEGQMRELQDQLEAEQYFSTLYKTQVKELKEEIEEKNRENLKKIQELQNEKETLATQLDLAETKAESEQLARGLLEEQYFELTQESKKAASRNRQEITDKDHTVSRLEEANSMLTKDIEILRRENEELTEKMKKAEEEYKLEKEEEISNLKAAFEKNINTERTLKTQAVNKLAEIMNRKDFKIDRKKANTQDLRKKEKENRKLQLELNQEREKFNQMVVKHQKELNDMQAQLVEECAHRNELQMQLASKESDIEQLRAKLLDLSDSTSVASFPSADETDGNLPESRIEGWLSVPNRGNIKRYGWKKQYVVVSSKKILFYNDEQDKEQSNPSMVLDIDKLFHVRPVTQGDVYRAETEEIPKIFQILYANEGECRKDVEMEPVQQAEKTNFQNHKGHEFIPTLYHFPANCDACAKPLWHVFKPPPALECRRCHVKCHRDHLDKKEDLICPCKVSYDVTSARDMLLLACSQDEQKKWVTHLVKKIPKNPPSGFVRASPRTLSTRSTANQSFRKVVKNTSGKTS
Description: (§1) 1. In Vitro Evaluation of the Inhibitory Activity Against ROCK Protein Kinase
(§2) Experimental purpose: to detect the inhibitory IC50 value of the compound against ROCK protein kinase.
(§3) Assay buffer solution: 20 mM 4-hydroxyethylpiperazine ethanesulfonic acid (pH 7.5), 10 mM magnesium chloride, 1 mM ethylene glycol-bis-(2-aminoethyl)tetraacetic acid, 0.02% polyethylene glycol monododecyl ether, 0.02 mg/mL bovine serum albumin, 0.1 mM sodium vanadate, 2 mM dithiothreitol, 1% DMSO.
(§4) The freshly prepared buffer solution was added to ROCK protein kinase substrate (Long S6 Kinase substrate peptide), at a concentration of 20 μM, then 1 nM ROCK protein kinase was added thereto and stirred evenly. Echo550 was used to add a series of DMSO dilutions containing the test compound (starting from 10 μM, serially diluted by 3 times), the solution was pre-incubated at room temperature for 20 minutes, then ^33P-ATP (radiation intensity 10 μCi/μL) was added to initiate the reaction, and the reaction was performed at room temperature for two hours. Then the solution was filtered by P81 ion exchange paper (Whatman #3698-915) and washed with 0.75% phosphoric acid. The radiation intensity was determined by Filter-Binding method.
(§5) The protein kinase inhibitory activity of the compound was expressed as the remaining protein kinase activity relative to the blank substrate (simply DMSO). Prism software package (GraphPad Software, San Diego Calif., USA) was used to calculate IC50 value and the curve.

[3] = biological target: ROCK2 (Homo sapiens (Human), UniProt O75116); experiment: In vitro inhibitory activity against ROCK protein kinase (33P-ATP filter-binding), ROCK2; assay type: biochemical; conditions: 1 nM ROCK protein kinase, 20 μM Long S6 Kinase substrate peptide
Sequence of ROCK2 (O75116 whole entry): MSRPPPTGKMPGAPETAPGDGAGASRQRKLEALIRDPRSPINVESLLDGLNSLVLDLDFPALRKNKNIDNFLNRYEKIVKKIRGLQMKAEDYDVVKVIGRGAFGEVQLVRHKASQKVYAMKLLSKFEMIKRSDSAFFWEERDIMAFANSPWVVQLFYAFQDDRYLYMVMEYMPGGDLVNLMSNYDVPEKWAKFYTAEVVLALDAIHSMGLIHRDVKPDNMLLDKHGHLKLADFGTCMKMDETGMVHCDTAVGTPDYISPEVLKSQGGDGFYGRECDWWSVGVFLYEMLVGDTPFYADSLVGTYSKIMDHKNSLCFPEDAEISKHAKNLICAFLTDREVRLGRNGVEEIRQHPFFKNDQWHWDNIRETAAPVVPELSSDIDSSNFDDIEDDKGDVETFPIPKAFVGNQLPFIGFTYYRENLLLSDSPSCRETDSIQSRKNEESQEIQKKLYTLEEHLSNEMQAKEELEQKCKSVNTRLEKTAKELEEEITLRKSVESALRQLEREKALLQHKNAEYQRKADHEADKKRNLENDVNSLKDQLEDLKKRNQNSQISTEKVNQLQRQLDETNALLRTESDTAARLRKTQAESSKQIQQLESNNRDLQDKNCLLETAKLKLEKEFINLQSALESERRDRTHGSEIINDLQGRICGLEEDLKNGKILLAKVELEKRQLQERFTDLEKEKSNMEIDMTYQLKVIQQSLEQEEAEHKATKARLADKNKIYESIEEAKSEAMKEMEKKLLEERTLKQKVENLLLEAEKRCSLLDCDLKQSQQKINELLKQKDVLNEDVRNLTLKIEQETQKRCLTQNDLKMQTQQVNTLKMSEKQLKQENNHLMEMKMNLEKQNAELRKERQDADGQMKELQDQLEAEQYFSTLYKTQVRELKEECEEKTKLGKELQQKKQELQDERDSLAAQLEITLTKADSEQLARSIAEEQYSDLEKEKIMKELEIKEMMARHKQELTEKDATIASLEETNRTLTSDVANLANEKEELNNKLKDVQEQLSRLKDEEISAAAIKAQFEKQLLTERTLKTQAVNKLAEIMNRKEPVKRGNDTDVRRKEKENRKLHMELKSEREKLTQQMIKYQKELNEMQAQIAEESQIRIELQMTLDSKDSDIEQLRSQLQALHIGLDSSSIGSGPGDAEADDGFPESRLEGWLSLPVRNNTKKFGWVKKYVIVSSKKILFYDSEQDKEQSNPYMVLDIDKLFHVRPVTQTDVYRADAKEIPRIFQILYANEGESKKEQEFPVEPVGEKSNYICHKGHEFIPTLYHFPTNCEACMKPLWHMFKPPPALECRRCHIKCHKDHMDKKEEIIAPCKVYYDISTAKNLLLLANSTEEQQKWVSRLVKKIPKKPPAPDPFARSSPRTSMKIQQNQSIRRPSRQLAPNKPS
Description: as §1, §2, §3, §4, §5

SMILES	clearance [1] [mL/min/kg]	half-life [1] [min]	Vd [1] [L/kg]	bioavailability [1] [%]	AUC(0-t) [1] [µM·h]	Cmax [1] [nM]	IC50 [2] [nM]	IC50 [3] [nM]
Cc1n[nH]c2ccc(-c3cccc(C(=O)NC(CN)c4cccc(F)c4F)c3)cc12 (centres unmarked) [Compound 61]	30.8	142	4.72	11	0.266	55.6	253	23
CNCC(NC(=O)c1cc(-c2ccc3[nH]nc(C)c3c2)ccn1)c1cccc(OC)c1 (centres unmarked) [Compound 66]	50.8	164	10.5	20.9	0.306	50.7	193	11
COc1cccc(C(NC(=O)c2cccc(-c3ccc4[nH]nc(C)c4c3)c2)C(C)(C)N)c1 (centres unmarked) [Compound 64]	88.3	170	16.4	12	0.1	17	798	46
Cc1cccc(C(CN)NC(=O)c2cccc(-c3ccc4[nH]nc(C)c4c3)c2)c1 (centres unmarked) [Compound 35]	25	230	6.78	21	0.734	117	317	13
COc1cccc(C(CNS(C)(=O)=O)NC(=O)c2cccc(-c3ccc4[nH]nc(C)c4c3)c2)c1 (centres unmarked) [Compound 72]	55.7	37.2	1.79	11	0.148	99.4	587	12
COc1cccc(C(CO)NC(=O)c2cccc(-c3ccc4[nH]nc(F)c4c3)c2)c1 (centres unmarked) [Compound 26]	14	150	1.72	51	3.04	752	113	16
COc1cccc(C(CN)NC(=O)c2cc(-c3ccc4[nH]nc(C)c4c3)cc3cccnc23)c1 (centres unmarked) [Compound 34]							1430	17
COc1cccc(C2(NC(=O)c3cccc(-c4ccc5[nH]nc(C)c5c4)c3)CCNC2)c1 (centres unmarked) [Compound 44]							106	4
COc1cccc(C(CO)NC(=O)c2cc(-c3ccc4[nH]ncc4c3)ccc2F)c1 (centres unmarked) [Compound 15]							278	12
COc1cc(C(=O)NC(CN)c2cccc(OC)c2)cc(-c2ccc3[nH]nc(C)c3c2)c1 (centres unmarked) [Compound 52]							182	10
NCC(NC(=O)c1cccc(-c2ccc3[nH]nc(F)c3c2)c1)c1cccc(F)c1F (centres unmarked) [Compound 62]							289	48
COc1cccc(C(CN)NC(=O)c2cc(-c3ccc4[nH]nc(C)c4c3)ccc2OC(F)(F)F)c1 (centres unmarked) [Compound 49]	23.1	289	8.31	60	1.33	157	1200	31
COc1cccc(C2(NC(=O)c3cccc(-c4ccc5[nH]nc(F)c5c4)c3)CCNC2)c1 (centres unmarked) [Compound 45]							1270	19
COc1cccc(C(CCN(C)C)NC(=O)c2cccc(-c3ccc4[nH]ncc4c3)c2)c1 (centres unmarked) [Compound 8]							166	10

The next compounds have a lower IC50 [2] than those just listed; values first:

clearance [1] [mL/min/kg]	half-life [1] [min]	Vd [1] [L/kg]	bioavailability [1] [%]	AUC(0-t) [1] [µM·h]	Cmax [1] [nM]	IC50 [2] [nM]	IC50 [3] [nM]	SMILES
6.24	175	1.15	45	6.3	1180	89	5	COc1cccc(C(CO)NC(=O)c2cccc(-c3ccc4[nH]nc(C)c4c3)c2)c1 (centres unmarked) [Compound 25]
						79	< 1	COc1cccc(C(CCO)NC(=O)c2cccc(-c3ccc4[nH]ncc4c3)c2)c1 (centres unmarked) [Compound 2]
50.9	79.8	5.05	10	0.156	36.4	73	10	COc1cccc(C(CN(C)C)NC(=O)c2cccc(-c3ccc4[nH]nc(C)c4c3)c2)c1 (centres unmarked) [Compound 36]
						65	7	COc1cccc(C(CN)NC(=O)c2cccc(-c3ccc4[nH]nc(N)c4c3)c2)c1 (centres unmarked) [Compound 29]
						63	7	O=C(NC(CCO)c1cccc(F)c1)c1cccc(-c2ccc3[nH]ncc3c2)c1 (centres unmarked) [Compound 6]
23.4	215	6	21	0.758	117	57	4	COc1cccc(C(CN)NC(=O)c2cc(-c3ccc4[nH]nc(C)c4c3)ccn2)c1 (centres unmarked) [Compound 40]
						56	5	COc1cccc(C(CN)NC(=O)c2cc(-c3ccc4[nH]nc(C)c4c3)ccc2OC)c1 (centres unmarked) [Compound 50]
						33	6	COc1cccc(C(CO)NC(=O)c2cccc(-c3ccc4[nH]ncc4c3)c2)c1 (centres unmarked) [Compound 5]
